Results as given in publication PMC11085308, “Design, Synthesis and Biological Activity of Novel Methoxy- and Hydroxy-Substituted N-Benzimidazole-Derived Carboxamides” (Molecules, 2024).
Values after ≈ are worked out from the molar mass of the structure shown. Read-outs that look alike come from different tables or passages of the source.

How the values were obtained:
[1] = tested on: H460 (lung carcinoma); assay: Antiproliferative activity in vitro, MTT assay, 72 h; assay type: cell-based; conditions: Homo sapiens, NCI-H460, 72 h incubation
Procedure: (§1) The experiments were carried out on four human cell lines which are derived from three cancer types: H460 (lung carcinoma), HCT 116 (colorectal carcinoma), MCF-7 (human breast cancer) and the non-cancerous cell line HEK 293 (human embryonic kidney).
(§2) The results are compared with the known antiproliferative agents doxorubicin and etoposide. […] Therefore, it is not clear whether the observed antiproliferative activity is due to the biological activity of the compounds or to precipitation.
(§3) The experiments were performed on four human cell lines, including HCT 116 (colon carcinoma), H 460 (lung carcinoma), MCF-7 (breast carcinoma) and HEK 293 (human embryonic kidney cells), in line with previously published experimental procedures. Briefly, the cells were grown in DMEM medium with the addition of 10% fetal bovine serum (FBS), 2 mM of L-glutamine, 100 U/mL of penicillin and 100 µg/mL of streptomycin and cultured as monolayers at 37 °C in a humidified atmosphere with 5% CO2. Cells were seeded at 2 × 10^3 cells/well in standard 96-well microtiter plates and left to attach for 24 h. The next day, a test compound was added in five serial 10-fold dilutions. The rate of cell growth was evaluated after 72 h of incubation with MTT assays. […] Each test was performed in quadruplicate in at least two individual experiments.

[2] = tested on: HCT 116 (colorectal carcinoma); assay: as above; assay type: cell-based; conditions: Homo sapiens, 72 h incubation, '-' with footnote a = did not show biological activity due to precipitation
Procedure: as §1, §2, §3

[3] = tested on: MCF-7 (human breast cancer); assay: as above; assay type: cell-based; conditions: MCF7, 72 h incubation
Procedure: as §1, §2, §3

[4] = Ferric reducing/antioxidant power (FRAP assay); set-up: FRAP: unit not given here; conditions: for FRAP: Fe2+ equivalents, triplicate
Procedure: (§4) The synthesized benzazole acrylonitrile derivatives were screened for their antioxidative potency by using in vitro assays, namely DPPH and ABTS as free radical scavenging assays and FRAP as a ferric reducing/antioxidant power assay.
The antioxidant activity of a substance is directly related to its reducing power.
The FRAP method was carried out according to previously described procedures with some modifications to make it compatible with an assay on a 96-well microplate. All results were expressed as Fe^2+ equivalents (Fe^2+ µmol). Ferrous sulphate (FeSO4 × 7H2O) was used to develop a standard curve of 20–2000 µmol/l for the FRAP test.

[5] = tested on: S. aureus ATCC 29213; assay: Antibacterial activity in vitro, broth microdilution MIC; assay type: cell-based, Staphylococcus aureus; conditions: for MIC S. aureus ATCC 29213: broth microdilution, 16–24 h at 37 °C, unit inferred
Procedure: (§5) The in vitro antibacterial activity of the synthesized benzamides 7–12 and 31–37 was evaluated against a panel of eight different bacterial strains. The Gram-positive bacterial strains comprised S. aureus, S. pneumoniae and E. faecalis, and the panel of Gram-negative bacteria consisted of E. coli, K. pneumoniae, A. baumannii and P. aeruginosa.
(§6) The selected bacterial strains were Gram-negative Escherichia coli (ATCC 25922) and Gram-positive Staphylococcus aureus (ATCC 29213) and S. Pneumoniae (ATCC 49619). The Saccharomyces cerevisiae ATCC 7752 strain was tested as a eukaryotic model organism. Synthesized compounds were prepared as 10 mM DMSO solutions and tested in a final concentration range of 100–0.2 µM [39].
(§7) Broth microdilution testing was performed according to CLSI (Clinical Laboratory Standards Institute) guidelines. The MIC (minimal inhibitory concentration) value was defined as the last tested concentration of a compound at which there is no visible growth of bacteria. Inoculums for each microorganism were prepared using the direct colony suspension method, where broth solutions that achieved turbidity equivalent to 0.5 McFarland standards were additionally diluted 100× with cation-adjusted MH media (Becton Dickinson). All test plates were incubated for 16–24 h at 37 °C.

[6] = tested on: A. baumannii ATCC 17978; assay: as above; assay type: cell-based; conditions: 16–24 h at 37 °C, unit inferred
Procedure: as §5, §6, §7

[7] = tested on: E. faecalis ATCC 29212; assay: as above; assay type: cell-based; conditions: for Selectivity of antibacterial activity, in words: against the Gram-positive strain E. faecalis; for MIC E. faecalis ATCC 29212: broth microdilution, 16–24 h at 37 °C, unit inferred
Procedure: as §5, §6, §7

[8] = tested on: P. aeruginosa ATCC 27853; assay: as above; assay type: cell-based; conditions: 16–24 h at 37 °C, unit inferred
Procedure: as §5, §6, §7

[9] = tested on: E. coli ATCC 25922; assay: as above; assay type: cell-based, Escherichia coli; conditions: 16–24 h at 37 °C, unit inferred
Procedure: as §5, §6, §7

[10] = tested on: E. coli efflux del.; assay: microbe, parasite or virus in culture; assay type: cell-based, Escherichia coli; conditions: broth microdilution, 16–24 h at 37 °C; unit inferred
Procedure: as §5, §6, §7

[11] = Solubility in water, seen as precipitation during incubation; assay type: physicochemical; conditions: precipitation observed during the incubation period
Excerpt: Therefore, it is not clear whether the observed antiproliferative activity is due to the biological activity of the compounds or to precipitation.

[12] = tested on: HEK 293 (human embryonic kidney); assay: Antiproliferative activity in vitro, MTT assay, 72 h, non-cancerous cell line; assay type: cell-based; conditions: HEK293, 72 h incubation, '-' with footnote a = did not show biological activity due to precipitation
Procedure: as §1, §2, §3

[13] = tested on: HCT 116 cells; assay: Antioxidative activity assay in cells (ROS level, DCFH-DA fluorescence); assay type: cell-based, human; conditions: HCT 116, TBHP 100 µM plus 10 µM compound, 1 h, compared to NAC
Excerpt: We further selected compounds 9, 10, 32 and 36, showing quite pronounced antioxidant capacity in the DPPH and FRAP assays, in order to test their pro- and antioxidant activity in tumor cells. In order to test the antioxidant activity of the selected compounds in tumor cells (Figure 2), we treated HCT 116 cells with tert-butyl hydroperoxide (TBHP), a substance commonly used for inducing oxidative stress in cells and tissues, alone or in combination with a known antioxidative agent, N-acetyl-L-cysteine (NAC), or the tested compounds. We measured the formation of oxidative stress byproducts using 2′,7′-dichlorodihydrofluorescein diacetate (DCFH-DA).
For the antioxidative activity assay, 2.5 × 10^4 cells were seeded into 96-well microtiter plates and left to attach for 24 h. The next day, cells were washed with PBS and incubated in FBS-free DMEM medium with 25 µM of DCFH-DA fluorescence dye. After 45 min of incubation, the medium was discarded, and the cells were washed with PBS.
After the washing step, the cells were incubated with 100 µM of tert-butyl hydroperoxide (TBHP) alone or in combination with antioxidative agents (50 mM of N-Acetyl-L-cysteine-NAC or 10 µM of the tested compounds) in PBS for 1 h at 37 °C. DCFH-DA fluorescence was recorded on a microplate fluorimeter reader (Tecan) with an excitation beam of 485 nm, while the emitted fluorescence was collected at 535 nm. All tests were presented as the means of two independent measurements carried out in triplicate. One-way ANOVA with Tukey’s post hoc test was used for statistical analysis: *—p < 0.05; **—p < 0.01; ***—p < 0.001.
Figure 2 Antioxidative activity of selected systems. HCT 116 cells were treated with a combination of H2O2 (4 mM) and N-acetyl-L-cysteine (NAC, 10 mM) or the tested compounds (10 mM). Treatment with H2O2 (4 mM) alone was used as a control for ROS induction. The level of reactive oxygen species (ROS) was measured with the fluorescent dye DCFH-DA using a fluorimeter. The data presented here are the results of three independent measurements carried out in triplicate. A one-way ANOVA with Tukey’s post hoc test was used for statistical analysis, *** p < 0.001; ns—not significant.

[14] = tested on: H460, HCT 116, MCF-7, HEK 293; assay: Antiproliferative activity in vitro, MTT assay, range over the tested cell lines; assay type: cell-based, human; conditions: read-out: IC50 range against the tested cell lines
Procedure: as §1, §2, §3

[15] = DPPH free radical scavenging assay; conditions: compared to the standard BHT
Excerpt: as §4
The well-known antioxidant butylated hydroxytoluene (BHT) was used as a standard for comparing activity during testing. The DPPH assay is a standard commonly used test for the in vitro assessment of the antioxidant capacity of novel compounds by using their ability to scavenge the stable radical 1,1-diphenyl-picrylhydrazyl. […] Another test used to evaluate the antioxidative capacity of novel compounds was the ABTS test, by which their activity was evaluated by scavenging the stable radical 3-ethylbenzthiazoline-6-sulphonic acid.
Determination of the reducing activity of the stable radical 1,1-diphenyl-picrylhydrazyl (DPPH):
The reducing activity of the investigated systems was measured by the DPPH method according to previously described procedures with modifications to ensure their use on a 96-well microplate. Briefly, equal volumes of various concentrations of the tested molecules (dissolved in DMSO) were added to a solution of DPPH (final concentration of 50 µM in absolute ethanol). Ethanol and DMSO were used as control solutions in line with earlier reports. The radical scavenging activity was calculated using the following formula:[(A517 control − A517 compound)/A517 control] × 100.
The IC50 values were calculated from dose–response curves using nonlinear regression analysis with the GraphPad Prism 8 Ink. program. All measurements were carried out in triplicate.

COc1ccc(C(=O)Nc2nc3ccccc3[nH]2)c(O)c1 [Compound 7, N-(1H-benzo[d]imidazol-2-yl)-2-hydroxy-4-methoxybenzamide]
IC50 [1]: > 100 µM
IC50 [2]: 26.4 ± 4.8 µM
IC50 [3]: 36.3 ± 1.8 µM
FRAP [4]: 387.28 ± 7.56
MIC S. aureus ATCC 29213 [5]: > 64 µM
MIC A. baumannii ATCC 17978 [6]: > 64 µM
Selectivity of antibacterial activity, in words [7]: selective antibacterial activity
MIC E. faecalis ATCC 29212 [7]: 16 µM (≈ 4.53 µg/mL)
MIC P. aeruginosa ATCC 27853 [8]: > 64 µM
MIC E. coli ATCC 25922 [9]: > 64 µM
MIC E. coli efflux del. [10]: > 64 µM
Solubility in water [11]: low solubility in water

COc1ccc(C(=O)Nc2nc3cc(C#N)ccc3n2CC(C)C)c(O)c1 [Compound 10, N-(5-cyano-1-isobutyl-1H-benzo[d]imidazol-2-yl)-2-hydroxy-4-methoxybenzamide]
IC50 [1]: 4.4 ± 0.4 µM
IC50 [2]: 3.9 ± 0.4 µM
IC50 [3]: 2.2 ± 0.9 µM
IC50 [12]: 4.4 ± 0.3 µM
FRAP [4]: 123.61 ± 2.52
Level of ROS in cells under induced oxidative stress [13]: did not effectively scavenge ROS
MIC S. aureus ATCC 29213 [5]: > 64 µM
MIC A. baumannii ATCC 17978 [6]: > 64 µM
MIC E. faecalis ATCC 29212 [7]: > 64 µM
MIC P. aeruginosa ATCC 27853 [8]: > 64 µM
MIC E. coli ATCC 25922 [9]: > 64 µM
MIC E. coli efflux del. [10]: > 64 µM
IC50 ([14]; Homo sapiens): 2.2 to 4.4 µM
IC50 [14]: 1.2 to 5.3 µM

Cn1c(NC(=O)c2ccccc2O)nc2cc(C#N)ccc21 [Compound 11, N-(5-cyano-1-methyl-1H-benzo[d]imidazol-2-yl)-2-hydroxybenzamide]
IC50 [1]: > 100 µM
IC50 [2]: 3.7 ± 0.04 µM
IC50 [3]: 1.2 ± 0.3 µM
IC50 [12]: 5.3 ± 0.6 µM
FRAP [4]: 422.55 ± 8.82
MIC S. aureus ATCC 29213 [5]: > 64 µM
MIC A. baumannii ATCC 17978 [6]: > 64 µM
Selectivity of antibacterial activity, in words [7]: selective antibacterial activity
MIC E. faecalis ATCC 29212 [7]: 32 µM (≈ 9.35 µg/mL)
MIC P. aeruginosa ATCC 27853 [8]: > 64 µM
MIC E. coli ATCC 25922 [9]: > 64 µM
MIC E. coli efflux del. [10]: > 64 µM
IC50 ([14]; Homo sapiens): 1.2 to 5.3 µM

COc1ccc(C(=O)Nc2nc3cc(C#N)ccc3n2C)c(O)c1 [Compound 12, N-(5-cyano-1-methyl-1H-benzo[d]imidazol-2-yl)-2-hydroxy-4-methoxybenzamide]
IC50 [1]: > 100 µM
IC50 [3]: 3.1 µM
FRAP [4]: 592.86 ± 13.86
MIC S. aureus ATCC 29213 [5]: > 64 µM
MIC A. baumannii ATCC 17978 [6]: > 64 µM
Selectivity of antibacterial activity, in words [7]: selective antibacterial activity
MIC E. faecalis ATCC 29212 [7]: 32 µM (≈ 10.3 µg/mL)
MIC P. aeruginosa ATCC 27853 [8]: > 64 µM
MIC E. coli ATCC 25922 [9]: > 64 µM
MIC E. coli efflux del. [10]: > 64 µM
Solubility in water [11]: low solubility in water

Cn1c(NC(=O)c2cc(O)c(O)c(O)c2)nc2cc(C#N)ccc21 [Compound 36, N-(5-cyano-1-methyl-1H-benzo[d]imidazol-2-yl)-3,4,5-trihydroxybenzamide]
IC50 [1]: 48.3 ± 10.5 µM
IC50 [2]: 19.3 ± 6.4 µM
IC50 [3]: 4.8 ± 0.7 µM
IC50 [12]: 25.3 ± 0.7 µM
FRAP [4]: 2396.01 ± 35.27
FRAP ferric reducing/antioxidant power, in words ([4]; compared to the standard BHT): excellent in vitro antioxidant activity
DPPH free radical scavenging activity, in words [15]: significantly improved
Level of ROS in cells under induced oxidative stress [13]: reducing the level of ROS in the cells
MIC ([5]; Staphylococcus aureus, ATCC29213, read-out: MIC S. aureus): 32 µM (≈ 10.4 µg/mL)
MIC S. aureus ATCC 29213 [5]: 32 µM (≈ 10.4 µg/mL)
MIC A. baumannii ATCC 17978 [6]: > 64 µM
MIC E. faecalis ATCC 29212 [7]: 64 µM (≈ 20.8 µg/mL)
MIC P. aeruginosa ATCC 27853 [8]: > 64 µM
MIC E. coli ATCC 25922 [9]: > 64 µM
MIC E. coli efflux del. [10]: > 64 µM
melting point: 245 to 251 °C
